Laboratory results published in US20250282794A1 (CURADEV PHARMA LTD, priority 2022, published 2025).

biological target: recombinant full length HPK-1 enzyme (Homo sapiens (Human), UniProt Q92918); assay: HPK-1 biochemical enzyme assay (ADP-Glo kinase inhibition); conditions: recombinant full length HPK-1 6.8 nM, 10 μM ATP, 12.5 μM MBP, 30 mins at 25° C.
How it was run: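 Recombinant full-length human HPK-1 (6.8 nM) incubated 30 min at 25° C. with 10 μM ATP and 12.5 μM swine MBP in 40 mM Tris pH 7.4, 20 mM MgCl2, 50 μM DTT, 0.1 mg/mL BSA. ADP measured by ADP-Glo; IC50 from 10 concentrations, normalized to no-enzyme and vehicle controls.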

recombinant full length HPK-1 enzyme, sequence (Q92918 whole entry, species assumed): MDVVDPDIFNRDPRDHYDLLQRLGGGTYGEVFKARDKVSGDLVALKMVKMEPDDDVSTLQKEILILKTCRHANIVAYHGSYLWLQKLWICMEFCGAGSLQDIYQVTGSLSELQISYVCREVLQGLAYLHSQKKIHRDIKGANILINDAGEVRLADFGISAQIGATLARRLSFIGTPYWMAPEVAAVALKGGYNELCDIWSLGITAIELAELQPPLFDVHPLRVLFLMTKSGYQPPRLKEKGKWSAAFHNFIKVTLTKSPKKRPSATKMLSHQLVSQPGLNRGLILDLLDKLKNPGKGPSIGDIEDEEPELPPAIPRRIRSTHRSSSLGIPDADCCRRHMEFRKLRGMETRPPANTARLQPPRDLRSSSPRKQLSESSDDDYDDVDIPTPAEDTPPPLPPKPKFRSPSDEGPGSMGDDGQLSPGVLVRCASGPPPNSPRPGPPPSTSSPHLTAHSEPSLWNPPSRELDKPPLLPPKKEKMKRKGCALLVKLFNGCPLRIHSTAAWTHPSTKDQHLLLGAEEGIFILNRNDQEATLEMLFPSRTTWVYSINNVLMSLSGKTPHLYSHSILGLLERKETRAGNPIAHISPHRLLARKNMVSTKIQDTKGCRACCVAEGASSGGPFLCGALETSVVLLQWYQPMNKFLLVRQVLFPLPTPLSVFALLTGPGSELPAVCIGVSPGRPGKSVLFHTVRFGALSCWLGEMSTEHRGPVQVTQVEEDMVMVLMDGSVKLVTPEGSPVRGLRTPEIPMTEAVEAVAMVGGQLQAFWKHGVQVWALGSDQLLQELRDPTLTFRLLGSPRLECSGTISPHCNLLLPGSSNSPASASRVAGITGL

Row | IC50 [µM] | SMILES
1 | 0.01 to 0.1 | Cc1c(Nc2cc[nH]c(=O)c2C(=O)Nc2ccc(N3CCN(C)CC3)c(N(C)C)c2)cnc2c1NCCO2 [Example 291, N-(3-(dimethylamino)-4-(4-methylpiperazin-1-yl)phenyl)-4-((8-methyl-2,3-dihydro-1H-pyrido[2,3-b][1,4]oxazin-7-yl)amino)-2-oxo-1,2-dihydropyridine-3-carboxamide]
2 | ≤ 0.01 | Cc1c(Nc2cc[nH]c(=O)c2C(=O)Nc2ccc(N3CCN(CCC4CNC4)CC3)cc2)cnc2c1NCCO2 [Example 238, N-(4-(4-(2-(azetidin-3-yl)ethyl)piperazin-1-yl)phenyl)-4-((8-methyl-2,3-dihydro-1H-pyrido[2,3-b][1,4]oxazin-7-yl)amino)-2-oxo-1,2-dihydropyridine-3-carboxamide]
3 | 0.01 to 0.1 | CCN1CCN(c2c(F)cc(NC(=O)c3c(Nc4cnc5c(c4C)NCCO5)cc[nH]c3=O)cc2F)CC1 [Example 390, N-(4-(4-ethylpiperazin-1-yl)-3,5-difluorophenyl)-4-((8-methyl-2,3-dihydro-1H-pyrido[2,3-b][1,4]oxazin-7-yl)amino)-2-oxo-1,2-dihydropyridine-3-carboxamide]
4 | 0.01 to 0.1 | Cc1c(Nc2cc[nH]c(=O)c2C(=O)Nc2ccc(N3CCN(C(=O)C4CN(C)C4)CC3)cc2)cnc2c1NCCO2 [Example 373, 4-((8-methyl-2,3-dihydro-1H-pyrido[2,3-b][1,4]oxazin-7-yl)amino)-N-(4-(4-(1-methylazetidine-3-carbonyl)piperazin-1-yl)phenyl)-2-oxo-1,2-dihydropyridine-3-carboxamide]
5 | 0.01 to 0.1 | Cc1c(Nc2cc[nH]c(=O)c2C(=O)Nc2ccc3[nH]ncc3c2)cnc2c1NCCO2 [Example 234, N-(1H-indazol-5-yl)-4-((8-methyl-2,3-dihydro-1H-pyrido[2,3-b][1,4]oxazin-7-yl)amino)-2-oxo-1,2-dihydropyridine-3-carboxamide]
6 | ≤ 0.01 | Cc1c(Nc2cc[nH]c(=O)c2C(=O)Nc2ccc(N3CCN(C(=O)N4CCC(F)(F)C4)CC3)cc2)cnc2c1NCCO2 [Example 143, N-(4-(4-(3,3-difluoropyrrolidine-1-carbonyl)piperazin-1-yl)phenyl)-4-((8-methyl-2,3-dihydro-1H-pyrido[2,3-b][1,4]oxazin-7-yl)amino)-2-oxo-1,2-dihydropyridine-3-carboxamide]
7 | ≤ 0.01 | Cc1c(Nc2cc[nH]c(=O)c2C(=O)Nc2ccc(N3CCN(C(=O)C4C(C)(C)C4(C)C)CC3)cc2)cnc2c1NCCO2 [Example 334, 4-((8-methyl-2,3-dihydro-1H-pyrido[2,3-b][1,4]oxazin-7-yl)amino)-2-oxo-N-(4-(4-(2,2,3,3-tetramethylcyclopropane-1-carbonyl)piperazin-1-yl)phenyl)-1,2-dihydropyridine-3-carboxamide]
8 | 0.01 to 0.1 | CCOc1cc(NC(=O)c2c(Nc3cnc4c(c3C)NCCO4)cc[nH]c2=O)ccc1N1CCN(C2CC2)CC1 [Example 401, N-(4-(4-cyclopropylpiperazin-1-yl)-3-ethoxyphenyl)-4-((8-methyl-2,3-dihydro-1H-pyrido[2,3-b][1,4]oxazin-7-yl)amino)-2-oxo-1,2-dihydropyridine-3-carboxamide]
9 | ≤ 0.01 | Cc1c(Nc2cc[nH]c(=O)c2C(=O)Nc2ccc(N3CCC(N4CCN(C)CC4)CC3)cc2)cnc2c1NCCO2 [Example 274, 4-((8-methyl-2,3-dihydro-1H-pyrido[2,3-b][1,4]oxazin-7-yl)amino)-N-(4-(4-(4-methylpiperazin-1-yl)piperidin-1-yl)phenyl)-2-oxo-1,2-dihydropyridine-3-carboxamide]
10 | 0.01 to 0.1 | Cc1c(Nc2cc[nH]c(=O)c2C(=O)Nc2ccc(N3CCN4CCOC[C@H]4C3)cc2)cnc2c1NCCO2 [Example 323, (R)-N-(4-(hexahydropyrazino[2,1-c][1,4]oxazin-8(1H)-yl)phenyl)-4-((8-methyl-2,3-dihydro-1H-pyrido[2,3-b][1,4]oxazin-7-yl)amino)-2-oxo-1,2-dihydropyridine-3-carboxamide]
11 | 0.01 to 0.1 | Cc1c(Nc2cc[nH]c(=O)c2C(=O)Nc2ccc(N3CCN(C(=O)c4ccn(C)n4)CC3)cc2)cnc2c1NCCO2 [Example 322, N-(4-(4-(1-methyl-1H-pyrazole-3-carbonyl)piperazin-1-yl)phenyl)-4-((8-methyl-2,3-dihydro-1H-pyrido[2,3-b][1,4]oxazin-7-yl)amino)-2-oxo-1,2-dihydropyridine-3-carboxamide]
12 | 0.01 to 0.1 | Cc1c(Nc2cc[nH]c(=O)c2C(=O)Nc2ccc3c(c2)NC(=O)CC3)cnc2c1NCCO2 [Example 258, 4-((8-methyl-2,3-dihydro-1H-pyrido[2,3-b][1,4]oxazin-7-yl)amino)-2-oxo-N-(2-oxo-1,2,3,4-tetrahydroquinolin-7-yl)-1,2-dihydropyridine-3-carboxamide]
13 | ≤ 0.01 | Cc1c(Nc2cc[nH]c(=O)c2C(=O)Nc2ccc(N3CCN(C4CC4)CC3)c(Cl)c2)cnc2c1NCCO2 [Example 391, N-(3-chloro-4-(4-cyclopropylpiperazin-1-yl)phenyl)-4-((8-methyl-2,3-dihydro-1H-pyrido[2,3-b][1,4]oxazin-7-yl)amino)-2-oxo-1,2-dihydropyridine-3-carboxamide]
14 | 0.01 to 0.1 | COCCN1CCN(c2ccc(NC(=O)c3c(Nc4cnc5c(c4C)NCCO5)nc[nH]c3=O)cc2)CC1 [Example 413, N-(4-(4-(2-methoxyethyl)-piperazin-1-yl)phenyl)-4-((8-methyl-2,3-dihydro-1H-pyrido[2,3-b][1,4]oxazin-7-yl)amino)-6-oxo-1,6-dihydropyrimidine-5-carboxamide]
15 | ≤ 0.01 | Cc1c(Nc2cc[nH]c(=O)c2C(=O)Nc2ccc(N3CCN(C4CC4)CC3)cc2)cnc2c1NCCO2 [Example 167, N-(4-(4-Cyclopropylpiperazin-1-yl)phenyl)-4-((8-methyl-2,3-dihydro-1H-pyrido[2,3-b][1,4]oxazin-7-yl)amino)-2-oxo-1,2-dihydropyridine-3-carboxamide]
16 | ≤ 0.01 | Cc1c(Nc2cc[nH]c(=O)c2C(=O)Nc2ccc(N3CCN(C4CCC4)CC3)cc2)cnc2c1NCCO2 [Example 179, N-(4-(4-cyclobutylpiperazin-1-yl)phenyl)-4-((8-methyl-2,3-dihydro-1H-pyrido[2,3-b][1,4]oxazin-7-yl)amino)-2-oxo-1,2-dihydropyridine-3-carboxamide]
17 | 0.01 to 0.1 | Cc1c(Nc2cc[nH]c(=O)c2C(=O)Nc2ccc(N3CCN(CCO)CC3)cc2)cnc2c1NCC(C)O2 (centres unmarked) [Example 156, 4-((3,8-dimethyl-2,3-dihydro-1H-pyrido[2,3-b][1,4]oxazin-7-yl)amino)-N-(4-(4-(2-hydroxyethyl)piperazin-1-yl)phenyl)-2-oxo-1,2-dihydropyridine-3-carboxamide]
18 | 0.01 to 0.1 | Cc1c(Nc2cc[nH]c(=O)c2C(=O)Nc2ccc(N3CCN(C)CC3)cc2)cnc2c1NC(=O)CO2 [Example 126, 4-((8-methyl-2-oxo-2,3-dihydro-1H-pyrido[2,3-b][1,4]oxazin-7-yl)amino)-N-(4-(4-methylpiperazin-1-yl)phenyl)-2-oxo-1,2-dihydropyridine-3-carboxamide]
19 | 0.01 to 0.1 | COCC(C)N1CCN(c2ccc(NC(=O)c3c(Nc4cnc5c(c4C)NCCO5)cc[nH]c3=O)cc2)CC1 (centres unmarked) [Example 351, N-(4-(4-(1-methoxypropan-2-yl)piperazin-1-yl)phenyl)-4-((8-methyl-2,3-dihydro-1H-pyrido[2,3-b][1,4]oxazin-7-yl)amino)-2-oxo-1,2-dihydropyridine-3-carboxamide]
20 | ≤ 0.01 | Cc1c(Nc2cc[nH]c(=O)c2C(=O)Nc2ccc(N3CCN(C)C[C@H]3C)cc2)cnc2c1NCCO2 [Example 241, (R)-N-(4-(2,4-dimethylpiperazin-1-yl)phenyl)-4-((8-methyl-2,3-dihydro-1H-pyrido[2,3-b][1,4]oxazin-7-yl)amino)-2-oxo-1,2-dihydropyridine-3-carboxamide]
21 | 0.01 to 0.1 | Cc1c(Nc2cc[nH]c(=O)c2C(=O)Nc2ccc(N3CCC(C(=O)O)CC3)cc2)cnc2c1NCCO2 [Example 216, 1-(4-(4-((8-methyl-2,3-dihydro-1H-pyrido[2,3-b][1,4]oxazin-7-yl)amino)-2-oxo-1,2-dihydropyridine-3-carboxamido)phenyl)piperidine-4-carboxylic acid]
22 | ≤ 0.01 | Cc1c(Nc2cc[nH]c(=O)c2C(=O)Nc2ccc(N3CCN(C(C)C)CC3)c(F)c2)cnc2c1NCCO2 [Example 134, N-(3-fluoro-4-(4-isopropylpiperazin-1-yl)phenyl)-4-((8-methyl-2,3-dihydro-1H-pyrido[2,3-b][1,4]oxazin-7-yl)amino)-2-oxo-1,2-dihydropyridine-3-carboxamide]
23 | 0.01 to 0.1 | Cc1c(Nc2cc[nH]c(=O)c2C(=O)Nc2ccc(N3CCC(C4CC4)CC3)cc2)cnc2c1NCCO2 [Example 411, N-(4-(4-cyclopropylpiperidin-1-yl)phenyl)-4-((8-methyl-2,3-dihydro-1H-pyrido[2,3-b][1,4]oxazin-7-yl)amino)-2-oxo-1,2-dihydropyridine-3-carboxamide]
24 | 0.01 to 0.1 | Cc1c(Nc2cc[nH]c(=O)c2C(=O)Nc2ccc(N3CCN(C)CC3)cc2)cnc2c1N(C)CCO2 [Example 93, 4-((1,8-dimethyl-2,3-dihydro-1H-pyrido[2,3-b][1,4]oxazin-7-yl)amino)-N-(4-(4-methylpiperazin-1-yl)phenyl)-2-oxo-1,2-dihydropyridine-3-carboxamide]
25 | 0.01 to 0.1 | Cc1c(Nc2cc[nH]c(=O)c2C(=O)Nc2ccc(N3CCN(C)CC3)c(F)c2)cnc2c1NCC(C)O2 (centres unmarked) [Example 360, 4-((3,8-dimethyl-2,3-dihydro-1H-pyrido[2,3-b][1,4]oxazin-7-yl)amino)-N-(3-fluoro-4-(4-methylpiperazin-1-yl)phenyl)-2-oxo-1,2-dihydropyridine-3-carboxamide]
26 | ≤ 0.01 | CCN1CCN(c2ccc(NC(=O)c3c(Nc4cnc5c(c4C)NCCO5)cc[nH]c3=O)cc2)CC1 [Example 136, N-(4-(4-ethylpiperazin-1-yl)phenyl)-4-((8-methyl-2,3-dihydro-1H-pyrido[2,3-b][1,4]oxazin-7-yl)amino)-2-oxo-1,2-dihydropyridine-3-carboxamide]
